In patent US6586173B2, “Methods for the detection of amino acid decarboxylases” (priority 1999, dated 2003):
“And” between values parts separate entries of the source, which are not always exact repeats. Identical values can stand only once. Like-named read-outs stand apart in the source and are kept apart here. No end group written: not given here. *: point of attachment. AMC = Cc1cc(=O)oc2cc(N*)ccc12

Tests used:
[1] = test system: D. immitis L3 larvae; test: Larval culture assay, molting of L3 larvae counted by shed cuticles; format: cell-based, Dirofilaria immitis
[2] = test system: Di-ADC; test: Effect of inhibitors on cleavage of H-Phe-AMC by Di-ADC (D. immitis L3/L4 ES); format: biochemical, Dirofilaria immitis
[3] = test system: Phe-DC; test: Inhibitor assay with commercially prepared Phe-DC as enzyme source; format: biochemical
[4] = target: T1, Tyr-DC (Enterococcus faecalis, UniProt P0DTQ4); test: Inhibitor assay with commercially prepared Tyr-DC as enzyme source; format: biochemical
T1 sequence (P0DTQ4 1-620): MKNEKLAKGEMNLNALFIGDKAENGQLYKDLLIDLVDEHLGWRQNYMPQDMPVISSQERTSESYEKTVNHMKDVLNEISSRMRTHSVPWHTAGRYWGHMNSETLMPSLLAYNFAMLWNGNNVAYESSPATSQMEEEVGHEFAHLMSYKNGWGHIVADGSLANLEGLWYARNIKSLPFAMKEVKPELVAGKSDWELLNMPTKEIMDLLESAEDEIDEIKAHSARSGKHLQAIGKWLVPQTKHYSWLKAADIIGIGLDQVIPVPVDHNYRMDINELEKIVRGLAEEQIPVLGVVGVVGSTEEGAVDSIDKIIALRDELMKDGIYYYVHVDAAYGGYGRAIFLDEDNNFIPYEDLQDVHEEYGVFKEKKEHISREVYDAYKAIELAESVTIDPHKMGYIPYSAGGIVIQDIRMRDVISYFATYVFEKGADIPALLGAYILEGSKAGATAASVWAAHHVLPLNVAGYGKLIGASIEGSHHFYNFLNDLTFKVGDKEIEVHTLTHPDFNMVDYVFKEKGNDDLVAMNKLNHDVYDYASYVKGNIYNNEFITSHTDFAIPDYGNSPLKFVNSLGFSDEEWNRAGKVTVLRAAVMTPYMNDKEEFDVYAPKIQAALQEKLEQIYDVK

[5] = test system: D. immitis L3/L4 ES; format: biochemical, Dirofilaria immitis; details: pH 7.5
[6] = test system: Di-ADC; test: Enzyme kinetics of Di-ADC with AMC substrates (fluorimetric assay); format: biochemical, Dirofilaria immitis; details: substrate 0.0016 to 0.2 mM, double-reciprocal plot
[7] = target: T2, tyrosine decarboxylase (Tyr-DC) (Enterococcus faecalis, UniProt P0DTQ4); test: Substrate specificity assay on commercially prepared Tyr-DC; format: biochemical; details: as Example 1
T2 sequence (P0DTQ4 1-620): T1 sequence (P0DTQ4 1-620)

[8] = test system: Phe-DC; test: Enzyme kinetics of Phe-DC with AMC substrates (fluorimetric assay); format: biochemical; details: substrate 0.0016 to 0.2 mM, double-reciprocal plot
Method: E. Enzyme kinetics, as measured by Michaelis constant (Km) and maximal velocity (Vmax), can be used to characterize the activity of an enzyme towards a given substrate under defined conditions. Enzymatic reactions were performed under the fluorimetric assay conditions described in Example 1 using Di-ADC and commercially prepared Phe-DC as the enzymes and H-Phe-AMC, H-Tyr-AMC and H-Trp-AMC as the substrates. One μL of purified adult Di-ADC, prepared as described in Example 2 through the gel filtration chromatography step, or 80 micro units (μU) (11.4 μg) of Phe-DC were incubated with each substrate at substrate concentrations ranging from 0.0016 to 0.2 mM. Each reaction was carried out in duplicate in PBS reaction buffer and monitored using the fluorimetric method described in Example 1. The values of apparent Km and Vm, of Di-ADC and Phe-DC for the substrates H-Phe-AMC, H-Tyr-AMC and H-Trp-AMC were calculated from a double-reciprocal plot of 1/v against 1/[substrate].

[9] = test system: phenylalanine decarboxylase (Phe-DC); test: Substrate specificity assay on commercially prepared Phe-DC; format: biochemical; details: as Example 1
[10] = test system: Di-ADC; test: Carbon dioxide release on decarboxylation of L-phenylalanine by Di-ADC (INFINITY CO2 kit); format: biochemical, Dirofilaria immitis; details: 5 mM L-phenylalanine, 37° C., 45 minutes
[11] = test system: Phe-DC; test: Carbon dioxide release on decarboxylation of L-phenylalanine by Phe-DC (control reaction); format: biochemical; details: 375 U Phe-DC
[12] = test system: Phe-DC; test: Formation of dopamine from dopa by Phe-DC; format: biochemical; details: 172 μU Phe-DC, 0.5 mM L-dopa, 37° C., 30 minutes
[13] = test system: Di-ADC; test: Formation of dopamine from dopa by Di-ADC; format: biochemical, Dirofilaria immitis; details: 10 μl Di-ADC, 0.5 mM L-dopa, 37° C., 30 minutes
[14] = compared with inhibition of Di-ADC

## O=c1oc(Cl)c(Cl)c2ccccc12 [3,4-DCI, 3,4-Dichioroisocoumarin]
[1]; 0.001 mM, 3 days culture
  % Inhibition of molting of L3 larvae: 28.6%
[1]; 0.01 mM, 3 days culture
  % Inhibition of molting of L3 larvae: 40.9%
[1]; 0.1 mM, 3 days culture
  % Inhibition of molting of L3 larvae: 100%
[1]; final concentration of 0.1 mM
  inhibition of the molting process (in words): completely inhibited the molting process
[2]; comparison between enzymes
  inhibition of Di-ADC activity relative to Phe-DC or Tyr-DC activity: more strongly
[2]; inhibitor concentrations of Table II, pre-incubated 30 minutes at 37° C.
  sensitivity of the enzyme activity (H-Phe-AMC cleavage) to inhibitor: sensitive

## NCCc1c[nH]c2ccc(O)cc12 [5-HT, 5-hydroxytryptamine]
[3]; [14]
  inhibition of Phe-DC activity: at levels similar to the level that each inhibited Di-ADC
[4]; [14]
  inhibition of Tyr-DC activity: at levels similar to the level that each inhibited Di-ADC

## N=C(N)c1ccc(CS(=O)(=O)F)cc1 [APMSF]
[1]
  % Inhibition of molting of L3 larvae: 19.7% and 24.2% and 14.1%
  inhibition of the molting of L3 to L4 (in words): unable to completely inhibit the molting

## O=C(O)c1cc[c]([Hg][Cl])cc1 [CMBA, p-chloromercuribenzoic acid]
[3]
  inhibition of Phe-DC activity: at levels similar to the level that each inhibited Di-ADC
[4]
  inhibition of Tyr-DC activity: at levels similar to the level that each inhibited Di-ADC

## Cc1cc(=O)oc2cc(NC(=O)[C@H](Cc3ccccc3)NC(=O)CCCC(=O)O)ccc12 [Glutaryl—Phe—AMC]
[5]
  D. immitis L3/L4 ES Activity (cleavage of substrate): No

## Cc1cc(=O)oc2cc(NC(=O)[C@H](C)N)ccc12 [H—Ala—AMC]
[5]
  D. immitis L3/L4 ES Activity (cleavage of substrate): No

## Cc1cc(=O)oc2cc(NC(=O)[C@@H](N)CCCN=C(N)N)ccc12 [H—Arg—AMC]
[5]
  D. immitis L3/L4 ES Activity (cleavage of substrate): No

## Cc1cc(=O)oc2cc(NC(=O)[C@@H](N)CCC(=O)O)ccc12 [H—Glu—AMC]
[5]
  D. immitis L3/L4 ES Activity (cleavage of substrate): No

## Cc1cc(=O)oc2cc(NC(=O)CN)ccc12 [H—Gly—AMC]
[5]
  D. immitis L3/L4 ES Activity (cleavage of substrate): No

## Cc1cc(=O)oc2cc(NC(=O)[C@@H](N)Cc3cnc[nH]3)ccc12 [H—His—AMC]
[5]
  D. immitis L3/L4 ES Activity (cleavage of substrate): No

## Cc1cc(=O)oc2cc(NC(=O)[C@@H](N)CC(C)C)ccc12 [H—Leu—AMC]
[5]
  D. immitis L3/L4 ES Activity (cleavage of substrate): No

## Cc1cc(=O)oc2cc(NC(=O)[C@@H](N)CCCCN)ccc12 [H—Lys—AMC]
[5]
  D. immitis L3/L4 ES Activity (cleavage of substrate): No

## CSCC[C@H](N)C(=O)Nc1ccc2ccccc2c1 [H—Met—NHNap]
[5]
  D. immitis L3/L4 ES Activity (cleavage of substrate): No

## Cc1cc(=O)oc2cc(NC(=O)[C@@H](N)Cc3ccccc3)ccc12 [H—Phe—AMC]
[6]
  Km: 32.1 µM
  Vmax: 0.234 pmol/mg/min
[7]
  cleavage of substrate by Tyr-DC: cleave
[5]
  D. immitis L3/L4 ES Activity (cleavage of substrate): Yes
[8]
  Km: 23.1 µM
  Vmax: 0.619 pmol/mg/min
[9]
  cleavage of substrate by Phe-DC: cleave

## Cc1cc(=O)oc2cc(NC(=O)[C@@H]3CCCN3)ccc12 [H—Pro—AMC]
[5]
  D. immitis L3/L4 ES Activity (cleavage of substrate): No

## Cc1cc(=O)oc2cc(NC(=O)C(N)CO)ccc12 (stereo not shown) [H—Ser—AMC]
[5]
  D. immitis L3/L4 ES Activity (cleavage of substrate): No

## Cc1cc(=O)oc2cc(NC(=O)[C@@H](N)Cc3c[nH]c4ccccc34)ccc12 [H—Trp—AMC]
[6]
  Km: 29.1 µM
  Vmax: 0.140 pmol/mg/min
[7]
  cleavage of substrate by Tyr-DC: cleave
[5]
  D. immitis L3/L4 ES Activity (cleavage of substrate): Yes
[8]
  Km: 22.9 µM
  Vmax: 0.703 pmol/mg/min
[9]
  cleavage of substrate by Phe-DC: cleave

## Cc1cc(=O)oc2cc(NC(=O)[C@@H](N)Cc3ccc(O)cc3)ccc12 [H—Tyr—AMC]
[6]
  Km: 35.1 µM
  Vmax: 0.152 pmol/mg/min
[7]
  cleavage of substrate by Tyr-DC: cleave
[5]
  D. immitis L3/L4 ES Activity (cleavage of substrate): Yes
[8]
  Km: 72.3 µM
  Vmax: 0.339 pmol/mg/min
[9]
  cleavage of substrate by Phe-DC: cleave

## N[C@@H](Cc1ccccc1)C(=O)O [L-phenylalanine]
[10]; 5 μL Di-ADC
  formation of CO2: 0.7 mM
[10]; 10 μL Di-ADC
  formation of CO2: 0.38 mM
[10]; 20 μl Di-ADC
  formation of CO2: 0.4 mM
[11]
  formation of CO2: 0.27 mM

## O=S(=O)(F)Cc1ccccc1 [PMSF, Phenylmethane-7-sulfonyl fluoride]
[1]
  % Inhibition of molting of L3 larvae: 32.3% and 47.3% and 29.8%
  inhibition of the molting of L3 to L4 (in words): unable to completely inhibit the molting
[2]
  inhibition of Di-ADC activity relative to Phe-DC or Tyr-DC activity: more strongly
  sensitivity of the enzyme activity (H-Phe-AMC cleavage) to inhibitor: sensitive

## Cl.NCCc1ccc(S(=O)(=O)F)cc1 [Pefabloc]
[3]
  inhibition of Phe-DC activity: at levels similar to the level that each inhibited Di-ADC
[4]
  inhibition of Tyr-DC activity: at levels similar to the level that each inhibited Di-ADC
[1]
  effect on molting (in words): no apparent effect on molting
  effect on the molt (in words): inhibited the molt completely
  inhibition of the molting process (in words): completely inhibited the molting process
[2]
  sensitivity of the enzyme activity (H-Phe-AMC cleavage) to inhibitor: sensitive

## N[C@@H](Cc1ccc(O)c(O)c1)C(=O)O [dopa, L-dopa]
[12]
  dopamine formed: 9.4 nmol
[13]
  dopamine formed: 2.74 nmol

## Ala-Ala-Phe-{AMC}
[5]
  D. immitis L3/L4 ES Activity (cleavage of substrate): No
